Data published in US11612628B2, “Compositions for the treatment of articular disorders” (Aboca S.p.A. Società Agricola, priority 2017, dated 2023).
Values joined by “and” are separate entries in the source; they are usually repeats but may differ in a detail not shown here. Equal values may be shown once.

Tests used:
Type in all cases: in vivo, Sprague-Dawley rats
[1] = test system: Monoiodine Acetate-Induced Osteoarthritis Pain Model; assay: Beam balance test, MIA-induced osteoarthritis rats; details: for Beam balance test score, from normal (0) to pathological (4): 20 μL i.a. day 8 after MIA, Table 3
Experimental: (§1) Damage to the joint was induced by an individual intraarticular administration, in the paw of a pre-anesthetized rat, of 2 mg of […] (MIA) (volume: 25 μl) according to what described by Guingamp et al., Arthritis Rheum., 40:1670-1679, 1997.
(§2) The experiments described below were performed by injecting into the joint 20 μl of • control (physiological solution); • extract of lyophilized Echinacea purpurea, fraction soluble in hydroalcoholic solution 40-50%, denoted in the figures as 13C1608:2-10-20 mg/ml in PBS (phosphate buffered saline); • extract of lyophilized Centella asiatica, fraction soluble in hydroalcoholic solution 65-75%, denoted in the figures as 14G1862:0.2-1-2 mg/ml in PBS; • bovine synovial fluid: as is; • Hyalgan (Low-molecular weight Hyaluronic acid sodium salt (MW ˜500-730 kDa)):as is; • Jonexa (mixture comprised of a hylastan gel, i.e. a hyaluronic acid crosslinked with divinyl sulfone, and a sodium hyaluronate liquid in the gel-liquid ratio of 80:20): as is; • extract of Centella asiatica fraction soluble in hydroalcoholic solution 65-75%, denoted in the figures as 14G1862: 2 mg/ml in PBS • extract of lyophilized Centella asiatica, fraction soluble in hydroalcoholic solution, denoted in the figures as ABO-AR-2016-391: 2 mg/ml in PBS; • extract of lyophilized Centella asiatica, fraction soluble in hydroalcoholic solution, corresponding to the permeate of fraction ABO-AR-2016-391 after filtration, denoted in the figures as ABO-AR-2016-392:2 mg/ml in PBS; • extract of lyophilized Centella asiatica, fraction soluble in hydroalcoholic solution, corresponding to the retentate of fraction ABO-AR-2016-391 after filtration, denoted in the figures as ABO-AR-2016-393:2 mg/ml in PBS; • Triamcinolone acetonide: 100 μg/[…] • MIX (coextract) Centella+Echinacea lot 17H0246, as described above: 11 mg/ml in water f.p.i.
(§3) The mixture of plant extracts was solubilized in accordance with the following protocol: 5.5 g of lyophilized mixture were introduced in a beaker containing 450 g of water and left under stirring 15 min; thereafter, the weight of the liquid was brought to 500 g. For each injection, 30 g of solution were collected and filtered in sequence with 0.45-μ, and 0.22-μm filters. For each filtering, the first 3-4 g of solution were discarded. 20 μL of mixture were injected into the tibiotarsal joint of the rat (using a 26Gx3/8 needle) after having flexed its paw so as to form a 90°-degree angle, at day 8 from articular (joint) damage induction by MIA. For the other substances as well 20 μL of solution were injected (Hyalgan 10 mg/ml; triamcinolone acetonide 100 μg/20m1).
A 1-meter-long wooden beam having a 1 cm-square section was placed at a height of about 40 cm. […]

[2] = test system: Monoiodine Acetate-Induced Osteoarthritis Pain Model; assay: Animex test (spontaneous activity), MIA-induced osteoarthritis rats; details: for Animex test Number of movements: 20 μL i.a. day 8 after MIA, Table 4
Experimental: as §1, §2
as §3, with “For the other substances as well 20 μL of solution were injected (Hyalgan 10 mg/ml; triamcinolone acetonide 100 μg/20m1).” left out
The instrument enables to record the spontaneous activity of the animals through use of electromagnetic fields and resonance circuits. […] Variations are recorded by a number counter.

rat tibiotarsal joint = assay: Histology of the tibiotarsal joint, MIA-treated rats
Experimental: as §1, §2
(§4) Injected material: 20 μL of each sample assayed were injected into rat tibiotarsal joint (using a 26Gx3/8 needle) at […] from damage induction by MIA.
Tissue samples were fixed in 4% formalin in phosphate buffer for 24 hours. Subsequently, samples were decalcified for 28 days in a suitable decalcifying solution (1.6M formic acid, 0.76M sodium formate). At the end of the decalcification, the samples were dehydrated by passages in alcohol with increasing titer, and then included in paraffin. From samples thus processed, 7 μm-thick sections were obtained which were stained by Hematoxylin-Eosin.
The samples were observed under transmitted light optical microscope to assess the morphological parameters subject of analysis: • Inflammatory infiltrate • Synovial hyperplasia • Fibrin deposition in the joint space • Synovial vascularization • Cartilage erosion • Bone erosion • Joint space width
Every morphological parameter was evaluated by a specially provided score (0:absent, 1:scarce, 2:moderate, 3:serious). The evaluation was performed by three separate operators, in blind relative to the origin of the slides. A fourth operator collected data and obtained the final means. For each joint, at least three slides, and for each group at least 6 animals were evaluated. Results are expressed as mean±standard error.

[3] = test system: Monoiodine Acetate-Induced Osteoarthritis Pain Model; assay: Incapacitance test, MIA-induced osteoarthritis rats; details: for Incapacitance test Δ Weight (contralateral - ipsilateral paw): 20 μL i.a. day 8 after MIA, Table 2; for Incapacitance test Δ Weight (paw contralateral - ipsilateral): 20 μL i.a. of fraction (2 mg/ml) or triamcinolone acetonide (100 μg), Table 9
Experimental: as §1, §2, §4, §3
The test is based on the evaluation of the pressure exerted by a rat under conditions of normal posture on each of the hind legs (Hay et al. Neurosci. 78:843-850, 1997). Rats were placed into a small plexiglass box, their hind legs positioned onto two transducers recording the weight the rat distributes on each of the two paws. In case a neuropathy or an inflammation has been induced on one paw, the rat will exert less weight on said paw, compared to the other one.

[4] = test system: Monoiodine Acetate-Induced Osteoarthritis Pain Model; assay: Paw pressure test, MIA-induced osteoarthritis rats
Experimental: as §1, §2, §4, §3
An analgesimeter (Ugo Basile, Varese, Italy) was used. A pressure increasing at a constant rate (32 g/s) was applied on the hind paw of the animal by a blunt conical element. The nociceptive threshold of the rat was expressed as that force to which the animal reacts by withdrawing the paw or vocalizing (Leighton et al., 1988).

[5] = coextract study, single i.a. 20 μL, days 14, 30, 60
[6] = Centella fractions study, FIGS. 3 and 4

## CC1(C)O[C@@H]2C[C@H]3[C@@H]4CCC5=CC(=O)C=C[C@]5(C)[C@@]4(F)[C@@H](O)C[C@]3(C)[C@]2(C(=O)CO)O1 [triamcinolone acetonide, Triamcinolone acetonide]
[1]; Day 14
  Beam balance test score, from normal (0) to pathological (4): 1.8 ± 0.2^
[1]; Day 30
  Beam balance test score, from normal (0) to pathological (4): 1.3 ± 0.2
[1]; Day 60
  Beam balance test score, from normal (0) to pathological (4): 0.8 ± 0.2
[1]; [5]
  motor abilities, Beam balance test (in words): statistical significance is reached solely at day 14
[2]; Day 14
  Animex test Number of movements: 487.3 ± 57.3^
[2]; Day 30
  Animex test Number of movements: 583.3 ± 45.2^
[2]; Day 60
  Animex test Number of movements: 688.9 ± 54.2^
[2]; [5]
  spontaneous mobility, Animex test (in words): effectiveness is lower than that of the plant mixture
Rat tibiotarsal joint; [6]
  cartilage and bone tissue erosion (histology, in words): significant effectiveness
  inflammatory infiltrate (histology, in words): significant effectiveness
  joint space reduction (histology, in words): reduced effectiveness to 15- and 30-day timings and a more marked effectiveness after 60 days
  morphological parameters overall (histology, in words): only partially reduces the damaging effects of MIA
  other parameters: synovial hyperplasia, fibrin deposition, synovial vascularization (histology, in words): reduced effectiveness to 15- and 30-day timings and a more marked effectiveness after 60 days
Rat tibiotarsal joint; coextract study, FIG. 18-19
  articular space width (histology, in words): Evident effects
  erosion of cartilage and subchondral bone (histology, in words): analogous result
  fibrin deposition in the articular space (histology, in words): More moderate effects
  inflammatory infiltrate (histology, in words): capable of eliminating the presence of inflammatory infiltrate at all timings analyzed
  synovial hyperplasia and vascularization (histology, in words): More moderate effects
[3]; Centella fractions study, fractions 2 mg/ml, triamcinolone acetonide 100 μg
  Incapacitance test effect (in words): active both at days 14 and 30
[3]; Day 14
  Incapacitance test Δ Weight (contralateral - ipsilateral paw): 45.7 ± 3.9^^ g
  Incapacitance test Δ Weight (paw contralateral - ipsilateral): 28.7 ± 3.2^ g
[3]; Day 30
  Incapacitance test Δ Weight (contralateral - ipsilateral paw): 25.4 ± 4.3^^ g
  Incapacitance test Δ Weight (paw contralateral - ipsilateral): 15.6 ± 5.4^ g
[3]; Day 60
  Incapacitance test Δ Weight (contralateral - ipsilateral paw): 20.9 ± 5.4^ g
  Incapacitance test Δ Weight (paw contralateral - ipsilateral): 5.6 ± 4.4 g
[3]; [5]
  reduction of MIA-induced postural alteration, Incapacitance test (in words): reduces, it also in a statistically significant manner, MIA-induced alteration at all timings considered
[4]; Day 14, contralateral, 20 μL i.a. day 8 after MIA, Table 1
  Paw pressure test Weight: 64.5 ± 0.9 g
[4]; Day 14, contralateral, 20 μL i.a. of fraction (2 mg/ml) or triamcinolone acetonide (100 μg), Table 8
  Paw pressure test Weight: 65.3 ± 1.0 g
[4]; Day 14, ipsilateral, 20 μL i.a. day 8 after MIA, Table 1
  Paw pressure test Weight: 51.9 ± 1.3^^ g
[4]; Day 14, ipsilateral, 20 μL i.a. of fraction (2 mg/ml) or triamcinolone acetonide (100 μg), Table 8
  Paw pressure test Weight: 52.8 ± 1.1 g
[4]; Day 30, contralateral, 20 μL i.a. day 8 after MIA, Table 1
  Paw pressure test Weight: 68.4 ± 1.6 g
[4]; Day 30, contralateral, 20 μL i.a. of fraction (2 mg/ml) or triamcinolone acetonide (100 μg), Table 8
  Paw pressure test Weight: 65.8 ± 0.5 g
[4]; Day 30, ipsilateral, 20 μL i.a. day 8 after MIA, Table 1
  Paw pressure test Weight: 57.4 ± 0.4^ g
[4]; Day 30, ipsilateral, 20 μL i.a. of fraction (2 mg/ml) or triamcinolone acetonide (100 μg), Table 8
  Paw pressure test Weight: 56.7±2.5 g and 56.7 ± 2.5^^ g
[4]; Day 60, contralateral, 20 μL i.a. day 8 after MIA, Table 1
  Paw pressure test Weight: 64.9 ± 2.1 g
[4]; Day 60, contralateral, 20 μL i.a. of fraction (2 mg/ml) or triamcinolone acetonide (100 μg), Table 8
  Paw pressure test Weight: 66.4 ± 0.7 g
[4]; Day 60, ipsilateral, 20 μL i.a. day 8 after MIA, Table 1
  Paw pressure test Weight: 63.0 ± 1.5^ g
[4]; Day 60, ipsilateral, 20 μL i.a. of fraction (2 mg/ml) or triamcinolone acetonide (100 μg), Table 8
  Paw pressure test Weight: 61.3 ± 1.6 g
[4]; [5]
  antiperalgesic effect, Paw pressure test (in words): significantly reduces the articular pain reaction at all timings
